Literature values in paper PMC4278936 (Journal of computer-aided molecular design, 2014).

Molecular target: T1, PfENR (Plasmodium falciparum, UniProt Q9BH77)
T1 sequence (Q9BH77 22-432): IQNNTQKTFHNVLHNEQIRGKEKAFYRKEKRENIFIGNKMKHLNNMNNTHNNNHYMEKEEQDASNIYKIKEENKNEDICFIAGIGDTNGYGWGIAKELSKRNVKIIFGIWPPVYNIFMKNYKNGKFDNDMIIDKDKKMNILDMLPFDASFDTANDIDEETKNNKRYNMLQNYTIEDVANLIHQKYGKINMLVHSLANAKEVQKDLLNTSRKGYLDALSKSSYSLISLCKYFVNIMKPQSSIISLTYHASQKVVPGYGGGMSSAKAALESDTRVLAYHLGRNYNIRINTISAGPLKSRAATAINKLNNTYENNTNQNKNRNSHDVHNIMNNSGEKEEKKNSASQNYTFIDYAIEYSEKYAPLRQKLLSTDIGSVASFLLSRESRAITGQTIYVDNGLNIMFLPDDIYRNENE
Conditions: ref [32], [60]

**Q.** With Oc1cc(Cl)ccc1Oc1ccc(Cl)cc1Cl [compound 1, Triclosan] as the compound, how does the “Concentration range in which TCL inhibits PfENR” value read?
**A.** The value was “picomolar to nanomolar range”.
